According to patent US11198704B2, “Butane-tetraol-based amphiphiles and uses thereof” (Industry-University Cooperation Foundation Hanyang …, priority 2016, dated 2021):

Experiments:
[1] = tested on: uric acid-xanthine/H+ symporter (UapA), UapAG411VΔ1-11 GFP fusion; assay: Thermal stability of UapA solubilized by detergent, fluorescence size exclusion chromatography (FSEC); design: species or system Aspergillus nidulans; conditions: detergent 1.0% by weight; 40° C. for 10 minutes
Method: A UapA protein is a uric acid-xanthine/H^+ symporter in Aspergillus nidulans. An experiment for measuring structural stability of a uric acid-xanthine/H^+ symporter (UapA) by BTMs in an aqueous solution was performed. The structural stability of UapA was measured using fluorescence size exclusion chromatography (FSEC).
Specifically, UapAG411VΔ1-11 (hereinafter referred to as ‘UapA’) was expressed as a GFP fusion protein in a Saccharomyces cerevisiae FGY217 strain, and divided into a sample buffer (20 mM Tris (pH 7.5), 150 mM NaCl, 0.03% DDM, and 0.6 mM xanthine). This procedure was performed according to the method disclosed in the article by J. Leung et al. (Mol. Membr. Biol. 2013, 30, 32-42). Membranes containing UapA were re-suspended in PBS (10 mM imidazole pH 8.0, 150 mM NaCl, and 10% glycerol), and a concentration of proteins was measured. […] 100 μL aliquots were removed from the respective tubes, and fluorescence reading on each sample was performed before and after the aliquots were ultracentrifuged at 150,000 g for 10 minutes to remove insoluble matter. Water-soluble fractions remaining under each condition were subjected to fluorescence SEC (FSEC) using a Superose 6 column (GE Healthcare) equilibrated with a buffer containing a proper preparation (DDM or BTM).

[2] = Critical micelle concentration (CMC) using diphenylhexatriene (DPH) fluorescent stain; type: physicochemical; conditions: aqueous solution
Method: A method of measuring the CMC is not particularly limited, but the CMC may be measured using methods well known in the related art. For example, the CMC may be measured by a fluorescence staining method using diphenylhexatriene (DPH).
(§1) Specifically, the critical micelle concentration (CMC) was measured using diphenylhexatriene (DPH) as a fluorescent stain, and the hydrodynamic radii (Rh) of the micelles formed by each preparation (1.0% by weight) were measured through a dynamic light scattering (DLS) experiment.

[3] = Hydrodynamic radius and size distribution of micelles by dynamic light scattering (DLS); type: physicochemical; conditions: detergent 1.0% by weight
Method: A method of measuring the radius of the micelles is not particularly limited, but the radius of the micelles may be measured using methods well known in the related art. For example, the radius of the micelles may be measured through a dynamic light scattering (DLS) experiment.
as §1

Compound: CCCCCCCCCCCCO[C@@H]1O[C@H](CO)[C@@H](O[C@H]2O[C@H](CO)[C@@H](O)[C@H](O)[C@H]2O)[C@H](O)[C@H]1O [DDM, n-dodecyl-β-D-maltopyranoside, reference compound]
- UapA monodisperse peak in FSEC (extraction and structural stability) [1]: monodisperse peak with a relatively high strength
- CMC [2]: ~0.17 mM
- CMC (% by weight) [2]: ~0.0087 % by weight
- Rh (nm), hydrodynamic radius of micelles [3]: 3.4 ± 0.03 nm
